Results: US20170325459A1, “BICYCLIC COMPOUNDS AS PEST CONTROL AGENTS” (Bayer CropScience Aktiengesellschaft, priority 2014, published 2017)

Key:
Myzus persicae = Myzus persicae spray test; format: in vivo; conditions: Chinese cabbage leaf discs, after 6 days; for pest or weed control at 500 g/ha: Myzus persicae, foliar, 144 h, read-out: efficacy (aphids killed)
Procedure: Myzus persicae—Spray Test Solvent: 78 parts by weight of acetone • • 1.5 parts by weight of dimethylformamide Emulsifier: alkylaryl polyglycol ether To produce a suitable active ingredient formulation, 1 part by weight of active ingredient is dissolved using the specified parts by weight of solvent and made up with water containing an emulsifier concentration of 1000 ppm until the desired concentration is attained. To produce further test concentrations, the formulation is diluted with emulsifier-containing water. Discs of Chinese cabbage leaves (Brassica pekinensis) infested by all stages of the green peach aphid (Myzus persicae) are sprayed with an active ingredient formulation of the desired concentration. After 6 days, the efficacy in % is determined. 100% means that all the aphids have been killed and 0% means that none of the aphids have been killed.

Tetranychus urticae = Tetranychus urticae spray test, OP-resistant; format: in vivo; conditions: application rate 500 g/ha, bean leaf discs, after 6 days
Procedure: Tetranychus urticae—Spray Test, OP-Resistant
(§1) Solvent: 78.0 parts by weight of acetone • • 1.5 parts by weight of dimethylformamide
(§2) Emulsifier: alkylaryl polyglycol ether
(§3) To produce a suitable active ingredient formulation, 1 part by weight of active ingredient is dissolved using the specified parts by weight of solvent and made up with water containing an emulsifier concentration of 1000 ppm until the desired concentration is attained. To produce further test concentrations, the formulation is diluted with emulsifier-containing water.
Discs of bean leaves (Phaseolus vulgaris) infested with all stages of the greenhouse red spider mite (Tetranychus urticae) are sprayed with an active ingredient formulation of the desired concentration.
After 6 days, the efficacy in % is determined. 100% meant that all the spider mites have been killed and 0% means that no spider mites have been killed.

[1] = log P by HPLC (OECD Guideline 117), method [a] acidic range pH 2.7; format: physicochemical; conditions: for chromatographic logP: reversed-phase (RP) C18 HPLC column
Procedure: (§4) The log P values were determined in accordance with OECD Guideline 117 (EC Directive 92/69/EEC) by HPLC (high-performance liquid chromatography) using reversed-phase (RP) columns (C18), by the following methods: [a] The LC-MS determination in the acidic range is carried out at pH 2.7 with 0.1% aqueous formic acid and acetonitrile (contains 0.1% formic acid) as eluents; linear gradient from 10% acetonitrile to 95% acetonitrile. [b] LC-MS determination in the neutral range is effected at pH 7.8 with 0.001 molar aqueous ammonium hydrogencarbonate solution and acetonitrile as eluents; linear gradient from 10% acetonitrile to 95% acetonitrile. Calibration is effected using unbranched alkan-2-ones (having 3 to 16 carbon atoms) with known log P values (log P values determined on the basis of the retention times by linear interpolation between two successive alkanones).

[2] = log P by HPLC (OECD Guideline 117), method [b] neutral range pH 7.8; format: physicochemical; conditions: for chromatographic logP: reversed-phase (RP) C18 HPLC column
Procedure: as §4

Phaedon cochleariae = Phaedon cochleariae spray test; format: in vivo; conditions: application rate 500 g/ha, Chinese cabbage leaf discs, after 7 days
Procedure: Phaedon cochleariae—Spray Test
as §1, §2, §3
After 7 days, the efficacy in % is determined. 100% means that all the beetle larvae have been killed and 0% means that none of the beetle larvae have been killed.

Boophilus microplus = Boophilus microplus injection test; format: in vivo; conditions: application rate 20 μg/animal, injection into engorged adult female cattle ticks, assessed after 7 days
Procedure: Boophilus microplus—Injection Test Solvent: dimethyl sulphoxide To produce a suitable active ingredient formulation, 10 mg of active ingredient are mixed with 0.5 ml of solvent and the concentrate is diluted to the desired concentration with solvent. 1 μl of the active ingredient solution is injected into the abdomen of 5 engorged adult female cattle ticks (Boophilus microplus). The animals are transferred into dishes and kept in a climate-controlled room. Efficacy is assessed after 7 days by laying of fertile eggs. Eggs which are not visibly fertile are stored in a climate-controlled cabinet until the larvae hatch after about 42 days. An efficacy of 100% means that none of the ticks has laid any fertile eggs; 0% means that all the eggs are fertile.

## Cc1ccccc1-c1ccc2nc(-c3cccnc3)sc2c1 [compound 2]
Myzus persicae; application rate 500 g/ha
  efficacy (aphids killed): 100%
Tetranychus urticae
  efficacy (spider mites killed): 90%
[1]
  logP[a]: 4.08
[2]
  logP[b]: 4.24

## Cc1cccc(-c2ccc3nc(-c4cccnc4)sc3c2)c1 [compound 3, 6-(3-Methylphenyl)-2-(pyridin-3-yl)-1,3-benzothiazole]
Myzus persicae; application rate 500 g/ha
  pest or weed control at 500 g/ha: 90%
[1]
  chromatographic logP: 4.27
[2]
  chromatographic logP: 4.41

## Cc1ccc(-c2ccc3nc(-c4cccnc4)sc3c2)cc1 [compound 4]
Myzus persicae; application rate 500 g/ha
  efficacy (aphids killed): 100%
[1]
  logP[a]: 4.25
[2]
  logP[b]: 4.43

## Clc1cccc(-c2ccc3nc(-c4cccnc4)sc3c2)c1 [compound 7]
Myzus persicae; application rate 500 g/ha
  pest or weed control at 500 g/ha: 100%
Phaedon cochleariae
  efficacy (beetle larvae killed): 83%
[1]
  chromatographic logP: 4.32
[2]
  chromatographic logP: 4.49

## Clc1ccc(-c2ccc3nc(-c4cccnc4)sc3c2)cc1 [compound 8]
Phaedon cochleariae
  efficacy (beetle larvae killed): 83%
[1]
  logP[a]: 4.43

## Cc1cc(C)c(-c2ccc3nc(-c4cccnc4)sc3c2)cc1SCC(F)(F)F [compound 9, 6-{2,4-Dimethyl-5-[(2,2,2-trifluoroethyl)sulphanyl]phenyl}-2-(pyridin-3-yl)-1,3-benzothiazole]
Myzus persicae; application rate 500 g/ha
  pest or weed control at 500 g/ha: 90%
[1]
  chromatographic logP: 5.22
[2]
  chromatographic logP: 5.24

## Cc1cc(C)c([S+]([O-])CC(F)(F)F)cc1-c1ccc2nc(-c3cccnc3)sc2c1 (stereo not drawn) [compound 10, 6-{2,4-Dimethyl-5-[(2,2,2-trifluoroethyl)sulphinyl]phenyl}-2-(pyridin-3-yl)-1,3-benzothiazole]
Myzus persicae; application rate 500 g/ha
  pest or weed control at 500 g/ha: 90%
[1]
  chromatographic logP: 3.45
[2]
  chromatographic logP: 3.4

## Cc1cc(F)c(-c2ccc3nc(-c4cccnc4)sc3c2)cc1SCC(F)(F)F [compound 11, 6-{2-Fluoro-4-methyl-5-[(2,2,2-trifluoroethyl)sulphanyl]phenyl}-2-(pyridin-3-yl)-1,3-benzothiazole]
Myzus persicae; application rate 500 g/ha
  pest or weed control at 500 g/ha: 90%
[1]
  chromatographic logP: 4.96
[2]
  chromatographic logP: 4.97

## Cc1cc(F)c(-c2ccc3nc(-c4cccnc4)sc3c2)cc1[S+]([O-])CC(F)(F)F (stereo not drawn) [compound 12, 6-{2-Fluoro-4-methyl-5-[(2,2,2-trifluoroethyl)sulphinyl]phenyl}-2-(pyridin-3-yl)-1,3-benzothiazole]
Myzus persicae; application rate 500 g/ha
  pest or weed control at 500 g/ha: 90%
[1]
  chromatographic logP: 3.33
[2]
  chromatographic logP: 3.33

## FC(F)(F)CNc1ccc2nc(-c3cccnc3)sc2c1 [compound 13, 2-(Pyridin-3-yl)-N-(2,2,2-trifluoroethyl)-1,3-benzothiazol-6-amine]
Myzus persicae; application rate 500 g/ha
  pest or weed control at 500 g/ha: 90%
[1]
  chromatographic logP: 2.36
[2]
  chromatographic logP: 2.47

## Cc1cc(C)c(SCC(F)(F)F)cc1Nc1ccc2nc(-c3cccnc3)sc2c1 [compound 18, N-{2,4-Dimethyl-5-[(2,2,2-trifluoroethyl)sulphanyl]phenyl}-2-(pyridin-3-yl)-1,3-benzothiazol-6-amine]
Myzus persicae; application rate 500 g/ha
  pest or weed control at 500 g/ha: 90%
[1]
  chromatographic logP: 4.45
[2]
  chromatographic logP: 4.51

## Cc1cc(F)c(Nc2ccc3nc(-c4cccnc4)sc3c2)cc1SCC(F)(F)F [compound 20, N-{2-Fluoro-4-methyl-5-[(2,2,2-trifluoroethyl)sulphanyl]phenyl}-2-(pyridin-3-yl)-1,3-benzothiazol-6-amine]
Myzus persicae; application rate 500 g/ha
  pest or weed control at 500 g/ha: 90%
[1]
  chromatographic logP: 4.18
[2]
  chromatographic logP: 4.22

## c1cncc(-c2nc3ccc(-n4ccnc4)cc3s2)c1 [compound 25, 6-(1H-Imidazol-1-yl)-2-(pyridin-3-yl)-1,3-benzothiazole]
Myzus persicae; application rate 500 g/ha
  pest or weed control at 500 g/ha: 90%
Boophilus microplus
  efficacy (laying of fertile eggs): 80%
[2]
  chromatographic logP: 1.64

## FC(F)(F)c1cnn(-c2ccc3nc(-c4cccnc4)sc3c2)c1 [compound 27]
Myzus persicae; application rate 500 g/ha
  efficacy (aphids killed): 90%
[2]
  logP[b]: 3.42

## FC(F)(F)c1ccn(-c2ccc3nc(-c4cccnc4)sc3c2)n1 [compound 28, 2-(Pyridin-3-yl)-6-[3-(trifluoromethyl)-1H-pyrazol-1-yl]-1,3-benzothiazole]
Myzus persicae; application rate 500 g/ha
  pest or weed control at 500 g/ha: 100%
Boophilus microplus
  efficacy (laying of fertile eggs): 80%
[2]
  chromatographic logP: 3.46

## c1cnc(-c2ccn(-c3ccc4nc(-c5cccnc5)sc4c3)n2)nc1 [compound 30, 2-(Pyridin-3-yl)-6-[3-(pyrimidin-2-yl)-1H-pyrazol-1-yl]-1,3-benzothiazole]
Myzus persicae; application rate 500 g/ha
  pest or weed control at 500 g/ha: 90%
[2]
  chromatographic logP: 2

## C[S+]([O-])Cn1cc(-c2ccc3nc(-c4cccnc4)sc3c2)cn1 (stereo not drawn) [compound 39, 6-{1-[(Methylsulphinyl)methyl]-1H-pyrazol-4-yl}-2-(pyridin-3-yl)-1,3-benzothiazole]
Myzus persicae; application rate 500 g/ha
  pest or weed control at 500 g/ha: 100%
[1]
  chromatographic logP: 1.32
[2]
  chromatographic logP: 1.51

## Cc1cnn(-c2ccc3nc(-c4cccnc4)sc3c2)c1 [compound 45]
Myzus persicae; application rate 500 g/ha
  efficacy (aphids killed): 90%
[1]
  logP[a]: 2.62
[2]
  logP[b]: 2.71

## Cn1cnn(-c2ccc3nc(-c4cccnc4)sc3c2)c1=S [compound 46]
Myzus persicae; application rate 500 g/ha
  efficacy (aphids killed): 90%
[1]
  logP[a]: 1.35
[2]
  logP[b]: 1.49

## Cn1c(=O)n(C)n(-c2ccc3nc(-c4cccnc4)sc3c2)c1=O [compound 47]
Myzus persicae; application rate 500 g/ha
  efficacy (aphids killed): 100%
[1]
  logP[a]: 1.52
[2]
  logP[b]: 1.63

## Cc1nn(-c2ccc3nc(-c4cccnc4)sc3c2)c(=O)n1C [compound 48]
Myzus persicae; application rate 500 g/ha
  efficacy (aphids killed): 90%
[1]
  logP[a]: 1.66
[2]
  logP[b]: 1.81

## Cc1nn(-c2ccc3nc(-c4cccnc4)sc3c2)c(=S)n1C [compound 49]
Myzus persicae; application rate 500 g/ha
  efficacy (aphids killed): 90%
[1]
  logP[a]: 1.41
[2]
  logP[b]: 1.58

## CSc1nn(-c2ccc3nc(-c4cccnc4)sc3c2)c(=O)n1C [compound 51]
Myzus persicae; application rate 500 g/ha
  efficacy (aphids killed): 100%
[1]
  logP[a]: 2.43
[2]
  logP[b]: 2.56

## Cn1c(=O)cnn(-c2ccc3nc(-c4cccnc4)sc3c2)c1=O [compound 56, 4-Methyl-2-[2-(pyridin-3-yl)-1,3-benzothiazol-6-yl]-1,2,4-triazine-3,5(2H,4H)-dione]
Myzus persicae; application rate 500 g/ha
  pest or weed control at 500 g/ha: 90%
[1]
  chromatographic logP: 1.79
[2]
  chromatographic logP: 1.84

## CS(=O)(=O)CCNC(=O)c1ccc2nc(-c3cccnc3)sc2c1 [compound 71, N-[2-(Methylsulphonyl)ethyl]-2-(pyridin-3-yl)-1,3-benzothiazole-6-carboxamide]
Myzus persicae; application rate 500 g/ha
  pest or weed control at 500 g/ha: 100%
[1]
  chromatographic logP: 1.19

## CSCCC(=O)N(C)c1ccc2nc(-c3cccnc3)sc2c1 [compound 78]
Myzus persicae; application rate 500 g/ha
  efficacy (aphids killed): 100%
[1]
  logP[a]: 2.08

## CSCCC(=O)N(C)c1ccc2nc(-c3cncc(F)c3)sc2c1 [compound 79]
Myzus persicae; application rate 500 g/ha
  efficacy (aphids killed): 100%
[1]
  logP[a]: 2.64

## CS(=O)(=O)CCC(=O)Nc1ccc2nc(-c3cccnc3)sc2c1 [compound 80]
Myzus persicae; application rate 20 g/ha
  efficacy (aphids killed): 100%
[1]
  logP[a]: 1.22

## CN(C(=O)C1CCS(=O)(=O)C1)c1ccc2nc(-c3cccnc3)sc2c1 (stereo not drawn) [compound 82]
Myzus persicae; application rate 500 g/ha
  efficacy (aphids killed): 90%
[1]
  logP[a]: 1.49
